In patent US20250304567A1, “PYRROLIDIONE DERIVATIVES AS INHIBITORS OF NF KAPPA B INDUCING KINASE” (priority 2022, published 2025) one finds IC50 data, which are given here for 19 compounds.

Experiment [1] concerns the target Recombinant Human NF-kappaB-Inducing Kinase (NIK/MAP3K14) (Homo sapiens, UniProt Q99558). The experiment is described as follows: Inhibition of auto-phosphorylation of recombinant human NIK/MAP3K14 activity (AlphaScreen). In kind it is biochemical. To be noted: 5 μM ATP, 1 nM NIK, average if tested more than once. In outline: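 AlphaScreen detection of phospho-Ser176/180 after 1 nM GST-NIK auto-phosphorylates for 2 h at 25 °C with 5 μM ATP (50 mM Tris pH 7.5, 0.7% DMSO). IC50s come from sigmoidal curves of % inhibition against log dose, using enzyme-free, ATP-free low controls and full-activity high controls.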
(In general: In Alpha technology, singlet oxygen from a donor bead excites a nearby acceptor bead.)

Experiment [2] deals with p-IKKa levels in L363 (NIK translocated multiple myeloma) cells. The experiment is described as follows: Effect of compounds on p-IKKa levels in L363 (NIK translocated multiple myeloma) cells (AlphaLISA SureFire Ultra p-IKKa Ser176/180). The class given is cell-based, human. Particulars: Homo sapiens, L-363, p-IKKa levels in L363 cells; average if tested more than once; read-out: Assay 2 IC50. In outline: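 Phospho-IKKa (Ser176/180) in lysates quantified by AlphaLISA after 6 h compound exposure, 11-point threefold dilutions, 0.3% DMSO. L363 cells were pre-stimulated overnight and assayed with 250 ng/ml BAFF and 10 μM MG132; % inhibition fitted sigmoidally for IC50, duplicate curves.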

Sequence of Recombinant Human NF-kappaB-Inducing Kinase (NIK/MAP3K14) (Q99558 whole entry): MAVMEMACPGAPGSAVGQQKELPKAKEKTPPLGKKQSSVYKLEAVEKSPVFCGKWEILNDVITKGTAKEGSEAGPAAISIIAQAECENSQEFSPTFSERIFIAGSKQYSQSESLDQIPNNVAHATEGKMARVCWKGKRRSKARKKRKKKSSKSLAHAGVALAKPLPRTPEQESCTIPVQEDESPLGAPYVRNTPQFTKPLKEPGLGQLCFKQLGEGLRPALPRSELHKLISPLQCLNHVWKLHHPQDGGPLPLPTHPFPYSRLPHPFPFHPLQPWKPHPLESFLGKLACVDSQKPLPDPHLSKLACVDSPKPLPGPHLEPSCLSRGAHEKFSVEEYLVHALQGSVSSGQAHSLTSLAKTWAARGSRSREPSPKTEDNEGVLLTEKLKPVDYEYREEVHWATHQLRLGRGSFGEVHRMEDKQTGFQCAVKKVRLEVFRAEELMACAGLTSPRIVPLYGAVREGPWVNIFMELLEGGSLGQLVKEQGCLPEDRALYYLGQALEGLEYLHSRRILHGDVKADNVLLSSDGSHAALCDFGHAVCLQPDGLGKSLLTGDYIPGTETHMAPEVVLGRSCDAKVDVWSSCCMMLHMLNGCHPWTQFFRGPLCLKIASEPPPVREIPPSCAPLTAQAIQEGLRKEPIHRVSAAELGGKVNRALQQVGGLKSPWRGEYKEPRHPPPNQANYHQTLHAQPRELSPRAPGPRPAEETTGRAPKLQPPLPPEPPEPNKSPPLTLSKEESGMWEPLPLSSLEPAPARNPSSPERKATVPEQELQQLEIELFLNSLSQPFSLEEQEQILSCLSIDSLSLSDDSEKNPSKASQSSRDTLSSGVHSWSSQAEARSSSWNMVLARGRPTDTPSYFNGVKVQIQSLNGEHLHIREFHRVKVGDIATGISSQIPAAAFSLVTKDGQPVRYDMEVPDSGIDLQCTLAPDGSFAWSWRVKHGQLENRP

For the compound `CN1CC[C@@](O)(c2cccc(-c3nc(-c4ccnc(Nc5cc(Cl)n(C)n5)n4)cs3)c2)C1=O` [Example 261, (R)-3-(3-(4-(2-((5-Chloro-1-methyl-1H-pyrazol-3-yl)amino)pyrimidin-4-yl)thiazol-2-yl)phenyl)-3-hydroxy-1-methylpyrrolidin-2-one], the IC50 (as a rule, the concentration needed to halve the response being measured) in experiment [1] is less than 100 nM; in experiment [2], 100 to 500 nM.
The matching figures for `CN(C)C(=O)Cn1ccc(Nc2nccc(-c3csc(-c4cccc([C@]5(O)CCN(C)C5=O)c4)n3)n2)n1` [Example 262, (R)-2-(3-((4-(2-(3-(3-Hydroxy-1-methyl-2-oxopyrrolidin-3-yl)phenyl)thiazol-4-yl)pyrimidin-2-yl)amino)-1H-pyrazol-1-y)-N,N-dimethylacetamide]: less than 100 nM and greater than 501 nM.
Take `CN1CC[C@@](O)(c2cccc(-c3nc(-c4ccnc(Nc5cnn(C6CC6)c5)n4)cs3)c2)C1=O` [Example 263, (R)-3-(3-(4-(2-((1-Cyclopropyl-1H-pyrazol-4-yl)amino)pyrimidin-4-yl)thiazol-2-yl)phenyl)-3-hydroxy-1-methylpyrrolidin-2-one]: the IC50 in experiment [1] is less than 100 nM; in experiment [2] it was 100 to 500 nM.
With `CN1CC[C@@](O)(c2cccc(-c3nc(-c4ccnc(Nc5cnn6ccccc56)n4)cs3)c2)C1=O` [Example 264, (R)-3-Hydroxy-1-methyl-3-(3-(4-(2-(pyrazolo[1,5-a]pyridin-3-ylamino)pyrimidin-4-yl)thiazol-2-yl)phenyl)pyrrolidin-2-one], the concentration for half-maximal inhibition (IC50) in experiment [1] and in experiment [2] was less than 100 nM each time.
`COCCn1cc(Nc2nccc(-c3csc(-c4cccc([C@]5(O)CCN(C)C5=O)c4)n3)n2)cn1` [Example 265, (R)-3-Hydroxy-3-(3-(4-(2-((1-(2-methoxyethyl)-1H-pyrazol-4-yl)amino)pyrimidin-4-yl)thiazol-2-yl)phenyl)-1-methylpyrrolidin-2-one]: the results for the IC50 in experiment [1] and in experiment [2] were less than 100 nM and 100 to 500 nM, respectively.
`CN1CC[C@@](O)(c2cccc(-c3nc(-c4ccnc(Nc5ccon5)n4)cs3)c2)C1=O` [Example 266, (R)-3-Hydroxy-3-(3-(4-(2-(isoxazol-3-ylamino)pyrimidin-4-yl)thiazol-2-yl)phenyl)-1-methylpyrrolidin-2-one]: the IC50 in experiment [1] is less than 100 nM; in experiment [2], 100 to 500 nM.
As for `CN1CC[C@@](O)(c2cccc(-c3nc(-c4ccnc(Nc5ccnnc5)n4)cs3)c2)C1=O` [Example 267, (R)-3-hydroxy-1-methyl-3-(3-(4-(2-(pyridazin-4-ylamino)pyrimidin-4-yl)thiazol-2-yl)phenyl)pyrrolidin-2-one], the IC50 in experiment [1] and in experiment [2] was greater than 501 nM each time.
Regarding `CCn1cc(Nc2nccc(-c3csc(-c4cccc([C@]5(O)CCN(C)C5=O)c4)n3)n2)cn1` [Example 268, (R)-3-(3-(4-(2-((1-ethyl-1H-pyrazol-4-yl)amino)pyrimidin-4-yl)thiazol-2-yl)phenyl)-3-hydroxy-1-methylpyrrolidin-2-one], the half-maximal inhibitory concentration (IC50) is less than 100 nM in experiment [1] and 100 to 500 nM in experiment [2].
Take `Cc1nn(C)cc1Nc1nccc(-c2csc(-c3cccc([C@]4(O)CCN(C)C4=O)c3)n2)n1` [Example 269, (R)-3-(3-(4-(2-((1,3-dimethyl-1H-pyrazol-4-yl)amino)pyrimidin-4-yl)thiazol-2-yl)phenyl)-3-hydroxy-1-methylpyrrolidin-2-one]: the IC50 in experiment [1] and in experiment [2] was less than 100 nM each time.
In the case of `CCn1cc(Nc2nccc(-c3csc(-c4cccc([C@]5(O)CCN(C)C5=O)c4)n3)n2)c(C)n1` [Example 270, (R)-3-(3-(4-(2-((1-Ethyl-3-methyl-1H-pyrazol-4-yl)amino)pyrimidin-4-yl)thiazol-2-yl)phenyl)-3-hydroxy-1-methylpyrrolidin-2-one], the IC50 in experiment [1] and in experiment [2] was less than 100 nM throughout.
With `CN1CC[C@@](O)(c2cccc(-c3nc(-c4ccnc(Nc5cnn(C(F)F)c5)n4)cs3)c2)C1=O` [Example 271, (R)-3-(3-(4-(2-((1-(Difluoromethyl)-1H-pyrazol-4-yl)amino)pyrimidin-4-yl)thiazol-2-yl)phenyl)-3-hydroxy-1-methylpyrrolidin-2-one], the IC50 in experiment [1] was less than 100 nM; in experiment [2], 100 to 500 nM.
In the case of `CN1CC[C@@](O)(c2cccc(-c3nc(-c4ccnc(Nc5nc6ccccc6n5C)n4)cs3)c2)C1=O` [Example 272, (R)-3-Hydroxy-1-methyl-3-(3-(4-(2-((1-methyl-1H-benzo[d]imidazol-2-yl)amino)pyrimidin-4-yl)thiazol-2-yl)phenyl)pyrrolidin-2-one], the IC50 in experiment [1] and in experiment [2] was greater than 501 nM throughout.
With `CN1CC[C@@](O)(c2cccc(-c3nc(-c4ccnc(Nc5cnn(C6CCOCC6)c5)n4)cs3)c2)C1=O` [Example 273, (R)-3-Hydroxy-1-methyl-3-(3-(4-(2-((1-(tetrahydro-2H-pyran-4-yl)-1H-pyrazol-4-yl)amino)pyrimidin-4-yl)thiazol-2-yl)phenyl)pyrrolidin-2-one], the half-inhibitory concentration (IC50) in experiment [1] and in experiment [2] was less than 100 nM throughout.
`Cc1cnoc1Nc1nccc(-c2csc(-c3cccc([C@]4(O)CCN(C)C4=O)c3)n2)n1` [Example 274, (R)-3-Hydroxy-1-methyl-3-(3-(4-(2-((4-methylisoxazol-5-yl)amino)pyrimidin-4-yl)thiazol-2-yl)phenyl)pyrrolidin-2-one]: the IC50 in experiment [1] and in experiment [2] was greater than 501 nM in each case.
As for `Cc1nocc1Nc1nccc(-c2csc(-c3cccc([C@]4(O)CCN(C)C4=O)c3)n2)n1` [Example 275, (R)-3-Hydroxy-1-methyl-3-(3-(4-(2-((3-methylisoxazol-4-yl)amino)pyrimidin-4-yl)thiazol-2-yl)phenyl)pyrrolidin-2-one], the IC50 in experiment [1] and in experiment [2] was less than 100 nM each time.
`CC(C)n1cc(Nc2nccc(-c3csc(-c4cccc([C@]5(O)CCN(C)C5=O)c4)n3)n2)cn1` [Example 276, (R)-3-Hydroxy-3-(3-(4-(2-((1-isopropyl-1H-pyrazol-4-yl)amino)pyrimidin-4-yl)thiazol-2-yl)phenyl)-1-methylpyrrolidin-2-one]: the IC50 in experiment [1] and in experiment [2] was less than 100 nM in each case.
Turning to `CN1CC[C@@](O)(c2cccc(-c3nc(-c4ccnc(Nc5cc6ccccn6n5)n4)cs3)c2)C1=O` [Example 277, (R)-3-Hydroxy-1-methyl-3-(3-(4-(2-(pyrazolo[1,5-a]pyridin-2-ylamino)pyrimidin-4-yl)thiazol-2-yl)phenyl)pyrrolidin-2-one], the IC50 was 100 to 500 nM in experiment [1] and greater than 501 nM in experiment [2].
The matching figures for `CN1CC[C@@](O)(c2cccc(-c3nc(-c4ccnc(Nc5ccnn5CC(F)F)n4)cs3)c2)C1=O` [Example 278, (R)-3-(3-(4-(2-((1-(2,2-Difluoroethyl)-1H-pyrazol-5-yl)amino)pyrimidin-4-yl)thiazol-2-yl)phenyl)-3-hydroxy-1-methylpyrrolidin-2-one]: 100 to 500 nM and greater than 501 nM.
Turning to `CN1CC[C@@](O)(c2cccc(-c3nc(-c4ccnc(Nc5cnc6ccc(F)cn56)n4)cs3)c2)C1=O` [Example 279, (R)-3-(3-(4-(2-((6-Fluoroimidazo[1,2-a]pyridin-3-yl)amino)pyrimidin-4-yl)thiazol-2-yl)phenyl)-3-hydroxy-1-methylpyrrolidin-2-one], the IC50 in experiment [1] and in experiment [2] was greater than 501 nM throughout.
